Measured values reported in patent US10835456B2, “Propyl gallate-containing vitamin preparations” (BASF SE, priority 2016, dated 2020).

Key:
[1] = Stress test: stability in premix mixture, stored at 40° C. and 70% humidity for 4 weeks, retention of vitamin content; format: physicochemical; conditions: for Retention Active ingredient content after 4-week premix test: Table 3c; for Retention Canthaxanthin after 4-week test: Table 5c
Procedure: The stress test for the vitamins is configured such that specimens of 100 mg in each case of the formulation produced and 4 g of premix mixture are weighed into glass vessels. The premix mixture consists of 50% by weight of fine lime (particle size <1000 μm), 20% by weight of wheat bran (particle size <1000 μm), 20% by weight of 50% silica-supported choline chloride (particle size <1000 μm) and 10% by weight of trace element mixture (particle size 100-500 μm). The trace element mixture is composed of 46.78% by weight of FeSO4x7H2O (100-500 μm), 37.43% by weight of CuSO4x5H2O (100-500 μm), 11.79% by weight of ZnO (<500 μm), 3.61% by weight of MnO and 0.39% by weight of CoCO3. After addition of all ingredients, the specimens are mixed cautiously, with performance of the mixing mechanically or else by hand, and these specimens (A) are stored in a climate-controlled chamber at 40° C. and 70% humidity for 4 weeks. […]
For this purpose, specimens each of 100 mg of the formulation produced and 4 g of premix mixture are weighed out in glass vessels (50 mL glass vials). The premix mixture consists of 50% by weight of fine lime (particle size <1000 μm), 20% by weight of wheat bran (particle size <1000 μm), 20% by weight of 50% silica-supported choline chloride (particle size <1000 μm) and 10% by weight of trace element mixture (particle size 100-500 μm), said trace element mixture consisting of 46.78% by weight of FeSO4x7H2O (100-500 μm), 37.43% by weight of CuSO4x5H2O (100-500 μm), 11.79% by weight of ZnO (<500 μm), 3.61% by weight of MnO and 0.39% by weight of CoCO3. After addition of all ingredients, the specimens are mixed cautiously, where the mixing can be performed mechanically or else by hand, and these specimens (A) are stored in a climate-controlled chamber at 40° C. and 70% humidity for 4 weeks. An identical test is conducted with a comparative sample (B) which is of identical composition but which comprises, rather than propyl gallate, the same amount of ethoxyquin. […] The ratio of the contents after (A2), (B2) and before the storage (A1) and (B1) are used here to calculate the retention (A2/A1) or (B2/B1) of the samples. For the formulations of the invention, a quotient (A2/A1):(B2/B1) of at least 0.75 is determined here. Preferably, for the formulations of the invention, a quotient of at least 1 is obtained.
The stability of the particles thus produced was tested in a stress test. For this purpose, specimens each of 100 mg of the particles produced and 4 g of premix mixture were weighed into 50 mL glass bottles. The premix mixture consisted of 50% by weight of fine lime (particle size <1000 μm), 20% by weight of wheat bran (particle size <1000 μm), 20% by weight of 50% silica-supported choline chloride (particle size <1000 μm) and 10% by weight of trace element mixture (particle size 100-500 μm), and the trace element mixture of 46.78% by weight of FeSO4x7H2O (100-500 μm), 37.43% by weight of CuSO4x5H2O (100-500 μm), 11.79% by weight of ZnO (<500 μm), 3.61% by weight of MnO and 0.39% by weight of CoCO3. After addition of all ingredients, the specimens were carefully mixed by hand. These specimens were stored in a climate-controlled chamber at 40° C. and 70% air humidity for 4 weeks. […]

[2] = Particle size after dissolution in water by photon correlation spectroscopy (Malvern Zetasizer Nano ZSP); format: physicochemical; conditions: dry powder with propyl gallate added to the dispersion (Examples 1, 3b, 3c, 3d), PCS
Procedure: The particle size is determined by means of a Malvern Zetasizer Nano ZSP.
30 g of citranaxanthin were suspended in 240 g of isopropanol together with 1.1 g of ascorbyl palmitate and, with setting of the pressure-limiting valve to 30 bar, mixed continuously with 390 g of isopropanol in a mixing chamber A. At a metering rate of 6 L/h on the suspension side and of 9 L/h on the solvent side, a mixing temperature of 170° C. was established in the mixing chamber A. After a residence time of 0.3 second, the molecularly disperse solution was mixed in mixing chamber B with a solution of 32 g of gelatin, 71.4 g of sucrose and 50 g of glucose syrup in 4000 g of water at a throughput rate of 100 L/h. After the solvent had been removed under reduced pressure in a distillation apparatus, an active ingredient dispersion was obtained, to which 8 g of sunflower oil and 8 g of propyl gallate were added. The propyl gallate was predissolved here in 200 mL of water and adjusted to pH 7 with NaOH. Subsequently, the dispersion was converted to a stable, water-soluble dry powder by spray drying. After dissolution in water, by photon correlation spectroscopy (PCS), a particle size of 386 nm (standard deviation 142.5, polydispersity index PDI 0.185, D(95): 660 nm) was measured (Malvern Zetasizer Nano ZSP).

[3] = as above; format: physicochemical; conditions: dry powder of Example 3e, PCS
[4] = impurity from ethoxyquin preparation remaining in animal feed; cited from earlier work

CCOC(=O)/C(C)=C/C=C/C(C)=C/C=C/C=C(C)/C=C/C=C(C)/C=C/C1=C(C)CCCC1(C)C [C30 ester]
Retention Active ingredient content after 4-week premix test ([1]; propyl gallate 0% by wt., dispersion): 6.7%
Retention Active ingredient content after 4-week premix test ([1]; propyl gallate 2% by wt., dispersion): 13.83%
Retention Active ingredient content after 4-week premix test ([1]; propyl gallate 4% by wt., dispersion): 42.7%
Retention Active ingredient content after 4-week premix test ([1]; propyl gallate 6% by wt., dispersion): 57.7%
Retention Active ingredient content after 4-week premix test ([1]; propyl gallate 8% by wt., dispersion): 64.1%
Retention Active ingredient content after 4-week premix test ([1]; propyl gallate 10% by wt., dispersion): 58.5%
Retention Active ingredient content after 4-week premix test ([1]; propyl gallate 12% by wt., dispersion): 54.3%
Retention Active ingredient content after 4-week test ([1]; Table 3e, ethoxyquin 4% by wt., dispersion): 28.6%
Retention Active ingredient content after 4-week test ([1]; Table 3e, propyl gallate 4% by wt., dispersion): 33.4%
Retention Active ingredient content after 4-week test ([1]; Table 3e, propyl gallate 4% by wt., dispersion (pH adjustment before spraying from pH 8.5 to pH 6.8 with H2SO4)): 39.8%
Retention Active ingredient content after 4-week test ([1]; Table 3e, propyl gallate 6% by wt., dispersion): 44.4%
Retention Active ingredient content after 4-week test ([1]; Table 3e, propyl gallate 8% by wt., dispersion): 43.4%
Retention Active ingredient content after 4-week test ([1]; Table 4b, D,L-α tocopherol 4% by wt. (in active ingredient phase) + propyl gallate 4% by wt. (in protective colloid phase)): 29.2%
Retention Active ingredient content after 4-week test ([1]; Table 4b, mixed tocopherol 4% by wt. (in active ingredient phase) + propyl gallate 4% by wt. (in protective colloid phase)): 57.5%
Retention Canthaxanthin after 4-week test ([1]; propyl gallate 0% by wt., mixed tocopherol 4% by wt.): 11%
Retention Canthaxanthin after 4-week test ([1]; propyl gallate 4% by wt., mixed tocopherol 0% by wt.): 42.7%
Retention Canthaxanthin after 4-week test ([1]; propyl gallate 4% by wt., mixed tocopherol 4% by wt.): 61.7%
particle size [2]: 280 nm
polydispersity index PDI [2]: 0.181
D(95) [3]: 683 nm
particle size [3]: 373 nm
polydispersity index PDI [3]: 0.203

CCOc1ccc(N)cc1 [p-phenetidine]
mutagenicity [4]: possibly a mutagen
